What was measured:
[1] = system: PANC-1 cells; assay: Apoptosis, Cell Death Detection ELISA (cytoplasmic histone-associated DNA fragments); type: cell-based, human; conditions: PANC-1, PA 0–30 μM, 24 h, relative to vehicle-treated cells (=1)
Procedure: (§1) Apoptosis induction in PA-treated cells was assessed by quantitation of cytoplasmic histone-associated DNA fragments and western blotting for PARP cleavage (c-PARP). The Cell Death Detection ELISA^PLUS Kit (Roche, Indianapolis, IN) was used to detect the amount of cytoplasmic histone-associated DNA fragments according to the manufacturer’s instructions and expressed relative to vehicle-treated cells (set equal to 1).

[2] = system: MIA PaCa-2 cells; assay: as above; type: cell-based, human; conditions: MIA PaCa-2, PA 0–30 μM, 24 h, relative to vehicle-treated cells (=1)
Procedure: as §1

## C=C(CC[C@@H](C(=O)O)[C@H]1[C@H](O)C[C@@]2(C)C3=C(CC[C@]12C)[C@@]1(C)CC[C@H](OC(C)=O)C(C)(C)[C@@H]1CC3)C(C)C [PA, Pachymic acid]
[1]
  PA-induced apoptosis vs control: ~19 fold
[2]
  PA-induced apoptosis vs control: ~8 fold

Source: paper PMC4411097, “Pachymic Acid Inhibits Growth and Induces Apoptosis of Pancreatic Cancer In Vitro and In Vivo by Targeting ER Stress” (PLoS ONE, 2015)
